Experimental data from ChEMBL document CHEMBL4482311, “Modulators of Prostate-Specific G-Protein Receptor (PSGR/OR51E2) and Methods of Using Same” (2018).
The source made the active and inactive calls. No cut-off for these calls is given here.

How the values were obtained:
Olfactory receptor 51E2 = biological target: T1, Olfactory receptor 51E2 (Homo sapiens, UniProt Q9H255); experiment: Agonist activity at PSGR/OR51E2 (unknown origin) expressed in human Hana3A cells co-transfected with CRE-Luc by luciferase reporter gene assay; assay type: functional, cell-based
T1 sequence (Q9H255 whole entry): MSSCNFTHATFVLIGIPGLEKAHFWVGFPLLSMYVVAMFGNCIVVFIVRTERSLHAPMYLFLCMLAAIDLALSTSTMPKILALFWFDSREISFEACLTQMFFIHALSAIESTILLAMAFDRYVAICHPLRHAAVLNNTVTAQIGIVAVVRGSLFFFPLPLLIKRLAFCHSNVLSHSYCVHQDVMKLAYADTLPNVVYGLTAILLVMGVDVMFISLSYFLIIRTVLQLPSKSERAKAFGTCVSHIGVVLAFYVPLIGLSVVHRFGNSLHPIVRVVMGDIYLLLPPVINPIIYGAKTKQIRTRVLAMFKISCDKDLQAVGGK

[1] = biological target: T2, Olfactory receptor 51E2 (Homo sapiens) (UniProt Q9H255); experiment: Agonist activity at PSGR/OR51E2 in human LNCaP cells assessed as induction of change in intracellular metabolites level by measuring guanine level at 100 nM incubated for 72 hrs by GC/MS analysis; assay type: cell-based
T2 sequence (whole entry): T1 sequence (Q9H255 whole entry)

[2] = biological target: T2, Olfactory receptor 51E2 (Homo sapiens); experiment: Agonist activity at PSGR/OR51E2 in human LNCaP cells assessed as induction of neuroendocrine trans-differentiation related gene expression by measuring increase in NSE mRNA expression incubated for 12 days by RT-PCR analysis; assay type: cell-based
[3] = biological target: T2, Olfactory receptor 51E2 (Homo sapiens); experiment: Agonist activity at PSGR/OR51E2 in human LNCaP cells assessed as induction of change in extracellular metabolites level by measuring 2-ketoleucine level at 100 nM incubated for 72 hrs by GC/MS analysis; assay type: cell-based
[4] = biological target: T2, Olfactory receptor 51E2 (Homo sapiens); experiment: Agonist activity at PSGR/OR51E2 in human LNCaP cells assessed as induction of change in intracellular metabolites level by measuring fumaric acid level at 100 nM incubated for 72 hrs by GC/MS analysis; assay type: cell-based
[5] = biological target: T2, Olfactory receptor 51E2 (Homo sapiens); experiment: Agonist activity at PSGR/OR51E2 in human LNCaP cells assessed as induction of change in extracellular metabolites level by measuring alpha-ketoglutaric acid level at 100 nM incubated for 72 hrs by GC/MS analysis; assay type: cell-based
[6] = biological target: T2, Olfactory receptor 51E2 (Homo sapiens); experiment: Agonist activity at PSGR/OR51E2 in human LNCaP cells assessed as induction of change in extracellular metabolites level by measuring glutaric acid level at 100 nM incubated for 72 hrs by GC/MS analysis; assay type: cell-based
[7] = biological target: T2, Olfactory receptor 51E2 (Homo sapiens); experiment: Agonist activity at PSGR/OR51E2 in human LNCaP cells assessed as induction of change in intracellular metabolites level by measuring alanine level at 100 nM incubated for 72 hrs by GC/MS analysis; assay type: cell-based
[8] = biological target: T2, Olfactory receptor 51E2 (Homo sapiens); experiment: Agonist activity at PSGR/OR51E2 in human LNCaP cells assessed as induction of change in intracellular metabolites level by measuring fructose-6-phosphate level at 100 nM incubated for 72 hrs by GC/MS analysis; assay type: cell-based
[9] = biological target: T2, Olfactory receptor 51E2 (Homo sapiens); experiment: Agonist activity at PSGR/OR51E2 in human LNCaP cells assessed as induction of change in extracellular metabolites level by measuring 2-deoxyglucose level at 100 nM incubated for 72 hrs by GC/MS analysis; assay type: cell-based
[10] = biological target: T2, Olfactory receptor 51E2 (Homo sapiens); experiment: Agonist activity at PSGR/OR51E2 in human LNCaP cells assessed as induction of neuroendocrine trans-differentiation related gene expression by measuring increase in OR51E2 mRNA expression incubated for 12 days by RT-PCR analysis; assay type: cell-based
[11] = biological target: T2, Olfactory receptor 51E2 (Homo sapiens); experiment: Agonist activity at PSGR/OR51E2 in human LNCaP cells assessed as induction of change in intracellular metabolites level by measuring lactic acid level at 100 nM incubated for 72 hrs by GC/MS analysis; assay type: cell-based
[12] = biological target: T2, Olfactory receptor 51E2 (Homo sapiens); experiment: Agonist activity at PSGR/OR51E2 in human LNCaP cells assessed as induction of change in extracellular metabolites level by measuring hydroquinone level at 100 nM incubated for 72 hrs by GC/MS analysis; assay type: cell-based
[13] = biological target: T2, Olfactory receptor 51E2 (Homo sapiens); experiment: Agonist activity at PSGR/OR51E2 in human LNCaP cells assessed as induction of change in extracellular metabolites level by measuring n-acetylaspartic acid level at 100 nM incubated for 72 hrs by GC/MS analysis; assay type: cell-based
[14] = biological target: T2, Olfactory receptor 51E2 (Homo sapiens); experiment: Agonist activity at PSGR/OR51E2 in human LNCaP cells assessed as induction of neuroendocrine trans-differentiation related gene expression by measuring increase in AMACR mRNA expression incubated for 12 days by RT-PCR analysis; assay type: cell-based
[15] = biological target: T2, Olfactory receptor 51E2 (Homo sapiens); experiment: Agonist activity at PSGR/OR51E2 in human LNCaP cells assessed as induction of change in extracellular metabolites level by measuring beta-alanine level at 100 nM incubated for 72 hrs by GC/MS analysis; assay type: cell-based
[16] = biological target: T2, Olfactory receptor 51E2 (Homo sapiens); experiment: Agonist activity at PSGR/OR51E2 in human LNCaP cells assessed as induction of change in extracellular metabolites level by measuring urea level at 100 nM incubated for 72 hrs by GC/MS analysis; assay type: cell-based
[17] = biological target: T2, Olfactory receptor 51E2 (Homo sapiens); experiment: Agonist activity at PSGR/OR51E2 in human LNCaP cells assessed as induction of change in extracellular metabolites level by measuring succinic acid level at 100 nM incubated for 72 hrs by GC/MS analysis; assay type: cell-based
[18] = biological target: T2, Olfactory receptor 51E2 (Homo sapiens); experiment: Agonist activity at PSGR/OR51E2 in human LNCaP cells assessed as induction of change in extracellular metabolites level by measuring glyceric acid level at 100 nM incubated for 72 hrs by GC/MS analysis; assay type: cell-based
[19] = biological target: T2, Olfactory receptor 51E2 (Homo sapiens); experiment: Agonist activity at PSGR/OR51E2 in human LNCaP cells assessed as induction of change in intracellular metabolites level by measuring tyramine level at 100 nM incubated for 72 hrs by GC/MS analysis; assay type: cell-based
[20] = biological target: T2, Olfactory receptor 51E2 (Homo sapiens); experiment: Agonist activity at PSGR/OR51E2 in human LNCaP cells assessed as induction of change in extracellular metabolites level by measuring benzoic-acid level at 100 nM incubated for 72 hrs by GC/MS analysis; assay type: cell-based
[21] = biological target: T2, Olfactory receptor 51E2 (Homo sapiens); experiment: Agonist activity at PSGR/OR51E2 in human LNCaP cells assessed as induction of change in intracellular metabolites level by measuring adenosine/inosine level at 100 nM incubated for 72 hrs by GC/MS analysis; assay type: cell-based
[22] = biological target: T2, Olfactory receptor 51E2 (Homo sapiens); experiment: Agonist activity at PSGR/OR51E2 in human LNCaP cells assessed as induction of change in extracellular metabolites level by measuring hydroxyprolines level at 100 nM incubated for 72 hrs by GC/MS analysis; assay type: cell-based
[23] = biological target: T2, Olfactory receptor 51E2 (Homo sapiens); experiment: Agonist activity at PSGR/OR51E2 in human LNCaP cells assessed as induction of change in intracellular metabolites level by measuring beta-alanine level at 100 nM incubated for 72 hrs by GC/MS analysis; assay type: cell-based
[24] = biological target: T2, Olfactory receptor 51E2 (Homo sapiens); experiment: Agonist activity at PSGR/OR51E2 in human LNCaP cells assessed as induction of change in intracellular metabolites level by measuring urea level at 100 nM incubated for 72 hrs by GC/MS analysis; assay type: cell-based
[25] = biological target: T2, Olfactory receptor 51E2 (Homo sapiens); experiment: Agonist activity at PSGR/OR51E2 in human LNCaP cells assessed as induction of change in extracellular metabolites level by measuring cysteine level at 100 nM incubated for 72 hrs by GC/MS analysis; assay type: cell-based
[26] = biological target: T2, Olfactory receptor 51E2 (Homo sapiens); experiment: Agonist activity at PSGR/OR51E2 in human LNCaP cells assessed as induction of change in intracellular metabolites level by measuring threonine level at 100 nM incubated for 72 hrs by GC/MS analysis; assay type: cell-based
[27] = biological target: T2, Olfactory receptor 51E2 (Homo sapiens); experiment: Agonist activity at PSGR/OR51E2 in human LNCaP cells assessed as induction of change in intracellular metabolites level by measuring glucose-6-phosphate level at 100 nM incubated for 72 hrs by GC/MS analysis; assay type: cell-based
[28] = biological target: T2, Olfactory receptor 51E2 (Homo sapiens); experiment: Agonist activity at PSGR/OR51E2 in human LNCaP cells assessed as induction of change in extracellular metabolites level by measuring guanine level at 100 nM incubated for 72 hrs by GC/MS analysis; assay type: cell-based
[29] = biological target: T2, Olfactory receptor 51E2 (Homo sapiens); experiment: Agonist activity at PSGR/OR51E2 in human LNCaP cells assessed as induction of change in intracellular metabolites level by measuring tyrosine level at 100 nM incubated for 72 hrs by GC/MS analysis; assay type: cell-based
[30] = biological target: T2, Olfactory receptor 51E2 (Homo sapiens); experiment: Agonist activity at PSGR/OR51E2 in human LNCaP cells assessed as induction of change in intracellular metabolites level by measuring serine level at 100 nM incubated for 72 hrs by GC/MS analysis; assay type: cell-based
[31] = biological target: T2, Olfactory receptor 51E2 (Homo sapiens); experiment: Agonist activity at PSGR/OR51E2 in human LNCaP cells assessed as induction of change in intracellular metabolites level by measuring malic acid level at 100 nM incubated for 72 hrs by GC/MS analysis; assay type: cell-based
[32] = biological target: T2, Olfactory receptor 51E2 (Homo sapiens); experiment: Agonist activity at PSGR/OR51E2 in human LNCaP cells assessed as induction of change in intracellular metabolites level by measuring pantothenic acid level at 100 nM incubated for 72 hrs by GC/MS analysis; assay type: cell-based
[33] = biological target: T2, Olfactory receptor 51E2 (Homo sapiens); experiment: Agonist activity at PSGR/OR51E2 in human LNCaP cells assessed as induction of change in extracellular metabolites level by measuring asparagine level at 100 nM incubated for 72 hrs by GC/MS analysis; assay type: cell-based
[34] = biological target: T2, Olfactory receptor 51E2 (Homo sapiens); experiment: Agonist activity at PSGR/OR51E2 (unknown origin) expressed in human Hana3A cells co-transfected with CRE-Luc by luciferase reporter gene assay relative to control 1 mM propionic acid; assay type: functional, cell-based

## H-RPPGFSPFR-OH [BRADYKININ]
Olfactory receptor 51E2
  EC50: 1.3 nM

## C[C@]12CC[C@H]3[C@@H](CCC4=CC(=O)CC[C@@]43CO)[C@@H]1CCC2=O
[1]
  Activity: Active
[2]
  Activity: Active
[3]
  Activity: Active
[4]
  Activity: Active
[5]
  Activity: Active
[6]
  Activity: Active
[7]
  Activity: Active
[8]
  Activity: Active
[9]
  Activity: Active
[10]
  Activity: Active
[11]
  Activity: Active
[12]
  Activity: Active
[13]
  Activity: Active
[14]
  Activity: Active
[15]
  Activity: Active
[16]
  Activity: Active
[17]
  Activity: Active
[18]
  Activity: Active
[19]
  Activity: Active
[20]
  Activity: Active
[21]
  Activity: Active
[22]
  Activity: Active
[23]
  Activity: Active
[24]
  Activity: Active
[25]
  Activity: Active
[26]
  Activity: Active
[27]
  Activity: Active
[28]
  Activity: Active
[29]
  Activity: Active
[30]
  Activity: Active
[31]
  Activity: Active
[32]
  Activity: Active
[33]
  Activity: Active

## COc1cc(CCC(=O)CC(=O)CCc2ccc(O)c(OC)c2)ccc1O
[34]
  Ratio: 0.284

## H-RPPGFSPFR-OH
[34]
  Ratio: 0.762

## Oc1ccc(-c2[o+]c3cc(O)cc(O)c3cc2O)cc1
[34]
  Ratio: 0.621

## O=C1CN=CN1
[34]
  Ratio: 0.678

## Nc1nc2[nH]c(O)nc2c(=O)[nH]1
Olfactory receptor 51E2
  EC50: 0.00044 nM
